Results on two compounds are retold here after paper PMC6409975, “Functional Characterization of OXYL, A SghC1qDC LacNAc-specific Lectin from The Crinoid Feather Star Anneissia Japonica” (Marine Drugs, 2019).

Test [1] addresses T1, OXYL (Anneissia japonica, UniProt A0A482DHP7).
T1 construct: signal peptide 1-18 removed; mainly tetramer; HiLyte Fluor 555-labelled for glycan array
As to the kind of experiment: hemagglutination inhibition, rabbit erythrocytes. To be noted: lectin titer 16; TBS with 0.2% Triton X-100; room temperature, 1 h; glutaraldehyde-fixed trypsinized erythrocytes. The format is binding. An excerpt:
hemagglutination inhibition, rabbit erythrocytes on OXYL

The target in test [2] is T1, OXYL. Kind of test: glycan array, fluorescence-labelled lectin. In kind it is binding. To be noted: immobilised glycan (1 mM spotted); HiLyte Fluor 555-labelled OXYL 0-20 μg/mL; 4 °C overnight; weaker than LNnT.

Values after ≈ are worked out from the molar mass of the structure shown.

T1 sequence (A0A482DHP7 entry or part of it): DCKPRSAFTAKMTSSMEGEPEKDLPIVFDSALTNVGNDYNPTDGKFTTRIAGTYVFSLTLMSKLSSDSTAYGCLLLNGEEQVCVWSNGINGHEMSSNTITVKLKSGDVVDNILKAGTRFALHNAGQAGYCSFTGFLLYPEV

Consider `CC(=O)N[C@H]1C(O)O[C@H](CO)[C@@H](O[C@@H]2O[C@H](CO)[C@H](O)[C@H](O)[C@H]2O)[C@@H]1O` (some centres unmarked) [N-acetyllactosamine], for which the Minimum inhibitory conc. in test [1] is listed as 3.13 mM (≈ 1200 µg/mL). On to `CC(=O)N[C@H]1[C@H]([C@H](O)[C@H](O)CO)O[C@@](O[C@H]2[C@@H](O)[C@@H](CO)O[C@@H](O[C@H]3[C@H](O)[C@@H](NC(C)=O)C(O)O[C@@H]3CO)[C@@H]2O)(C(=O)O)C[C@@H]1O` (some centres unmarked) [compound 2, S3LN], for which the “glycan array, fluorescence-labelled lectin” value in test [2] is on record as “OXYL could bind to 3-sialylated LacNAc more strongly than to 6-sialylated LacNAc”.
